Here are results for two compounds from EP2488183B1, “Composition for inhibiting TGF-beta comprising imidazopurine derivatives” (Korea Institute of Radiological & Medical Sciences, priority 2009, dated 2011).

The test system of series [1] is U87-MG. The experiment in a line: Apoptosis of brain cancer cells alone or with doxorubicin, CCK-8 viability assay. The format is cell-based. To be noted: 48 h; for apoptosis effect together with doxorubicin: compound added 2 h before doxorubicin 0.05 µM; for apoptosis: compound alone at 5 µM or more, FIGS. 9b, 9d. The protocol: (§1) TGF-βis known to have contrasting effects related to a tumor. That is, at an initial stage, TGF-β suppresses tumor growth, but at a latter stage, promotes metastasis or infiltration of a tumor. Thus, apoptosis of tumor cell lines caused by compound I and II, and apoptosis of tumor cell lines caused by compound I or II in combination with doxorubicin, an anti-cancer agent, were measured. […] The tumor cells were treated with compound I or II at the concentrations shown in FIG. 9, and 2 hours later, doxorubicin was added thereto. Then, the cells were incubated for 48 hours under the conditions described above and then, quantified using a CCK-8 viability assay kit (Dojindo, Japan).

Series [2] deals with HEK 293 cells. The series is described as follows: Cytotoxicity test, CCK-8 assay. The format is cell-based, human. To be noted: CCK-8, absorbance 450 nm, FIGS. 4a, 4b. The protocol:
In order to confirm that the luciferase activity is inhibited due to TGF-β inhibitor, rather than apoptosis, a CCK-8 survival rate assay kit (Dojindo, Japan) was used and an absorbance was measured at a wavelength of 450 nm by using a spectrophotometer (Labsystems, U.S.A.) to count the number of cells. The shown values are average values obtained from three independent experiments.

Series [3] has as its system H1299. The series is described as follows: Apoptosis of lung cancer cells alone or with doxorubicin, CCK-8 viability assay. The format is cell-based. To be noted: 48 h; for apoptosis effect together with doxorubicin: H1299, compound added 2 h before doxorubicin 0.05 µM; for apoptosis: H1299, compound alone at 5 µM or more, FIGS. 9a, 9c. The protocol:
as §1

For series [4], the system named is TGF-β. The series is described as follows: TGF-β inhibitor screening, 3TP-pGL2 luciferase reporter in transformed HEK 293 cells. The format is cell-based, human. To be noted: compound added 2 h before 0.5 ng/ml TGF-β, FIGS. 3a, 3b. From the text:
In order to screen an agent for inhibiting TGF-β cells stably transformed by luciferase-expressing plasmids were used to measure an effect on TGF-β activity.
A plasmid with a Smad binding site and a […] activator inhibitor (PAI) promoter, obtained from professor Carlos Arteaga at the University of Vanderbilt in US, was inserted into pGL2-Null reporter plasmid (Promega, U.S.A.). […] The plasmid was used to transform human embryonic kidney (HEK) 293 cells according to the manufacturer s specification, using Lipofectamine 2000 (Invitrogen, Calsbad, CA, USA), thereby constructing a system for screening an effect on TGF-β activity by measuring luciferase activity. The activity of luciferase was measured using a Dual Luciferase Assay kit (Promega, Medison, WI, USA). […]
The HEK 293 cells transformed were inoculated into a 96-well plate at 20,000 cells/ well in triplicates and then incubated under the condition as described above for 24 hours. Then, TGF-β was added thereto at concentrations of 0.5, 1, and 5 ng/ml and after 15-hour incubation, luciferase activity was measured. […]
By using the screening system as described above, a TGF-β inhibition effect was tested on 8,000 compounds in a compound library. […] Then, the luciferase activity was measured as described above. […]

In series [5] the test system is H1299 cells. The series is described as follows: Apoptosis alone or with radiation, Annexin-PI staining and FACS assay. Format: cell-based. To be noted: 48 h; for effect on apoptosis together with radiation compared to compound or radiation alone: H1299, 6 Gy. As for the experimental part: H1299, a cell strain of lung cancer, which is generally treated by radiation therapy, was treated with radiation in combination with compound I or II, and apoptosis thereof was measured. Compound I or II was added to H1299 cells inoculated to a 6 cm cell incubation plate as described in Example 3, and two hours later, 6 Gy of radioactive rays were irradiated thereto, and 48 hours later, apoptosis was measured by Annexin-PI staining and FACS assay. […] Table 2 [Table 2]

Series [6] concerns HSC-T6 cells. The series is described as follows: Serum-induced proliferation of hepatic stellate cells, CCK-8 assay. Format: cell-based, human. To be noted: added 2 h before serum, 48 h. As for the experimental part:
HSC-T6 cells, a stable cell line made by professor S.L. Friedman at Mount Sinai in U.S. A., were obtained and used as hepatic stellate cells (HSC), which are employed mainly as a subject for liver fibrosis. HSC-T6 cells were c under 5% CO2 at a temperature of 37°C in a DMEM supplemented with 10% FBS, 100 units/ml of penicillin, and 100 µg/ml of streptomycin. In order to identify whether compounds I and II directly affect proliferation of hepatic stellate cells, the incubation was performed in a serum-free medium for 24 hours and then the culture was treated with 1, 10, and 20 µM of the compounds I and II, 2 hours prior to addition of serum thereto. Subsequently, under the condition described above, the incubation was further performed for 48 hours and then a CCK-8 assay kit was used to measure cell viability. Absorbance was measured at a wavelength of 450 nm by using a spectrophotometer (Labsystems, U.S.A.) to count the number of cells.

[7] abbreviates: H1299, compound 5 µM + radiation (6 Gy) 2 h later.

Take `Cc1cn2c(nc3c2c(=O)n(Cc2ccccc2Cl)c(=O)n3C)[nH]1` [compound I, 3-(2-chlorobenzyl)-1,7-dimethyl-1H-imidazo[2,1-f]purine-2,4(3H,8H)-dion]: the “apoptosis effect together with doxorubicin” value in series [1] and in series [3] was “additive or synergistic apoptosis effects” each time. Moreover, the results for the apoptosis entry in series [1] and in series [3] were “did not occur” and “apoptosis occurred”, respectively. In series [2], the “cell count (cytotoxicity)” value is given as “no significant decrease in the cell count”. The “TGF-β activity (luciferase activity)” value in series [4] is “inhibit TGF-β activity in a concentration-dependent way”. In addition, in series [5], the “effect on apoptosis together with radiation compared to compound or radiation alone” value is “synergistic effect on apoptosis”. The “Apoptosis (%, average±SEM)” value in series [5] (setting [7]) is 73.42±1.84%; in series [5] (H1299, compound 5 µM alone), 20.86±1.03%. For the same compound, in series [6] (1, 10 and 20 µM, FIG. 5a), the “proliferation of hepatic stellate cells” value is listed as “almost completely blocked”.

Regarding `Cc1[nH]c2nc3c(c(=O)n(Cc4c(F)cccc4Cl)c(=O)n3C)n2c1C` [compound II, 3-(2-chloro-6-fluorobenzyl)-1,6,7-trimethyl-1H-imidazo[2,1-f]purine-2,4(3H,8H)-dion], the “apoptosis effect together with doxorubicin” value in series [1] and in series [3] was “additive or synergistic apoptosis effects” each time. Also, the apoptosis entry in series [1] was “did not occur”; in series [3], “apoptosis occurred”. The “cell count (cytotoxicity)” value in series [2] is on record as “no significant decrease in the cell count”. In series [4], the “TGF-β activity (luciferase activity)” value is on record as “inhibit TGF-β activity in a concentration-dependent way”. The “effect on apoptosis together with radiation compared to compound or radiation alone” value in series [5] was “synergistic effect on apoptosis”. In addition, the “Apoptosis (%, average±SEM)” value in series [5] (setting [7]) is on record as 55.91±5.58%; in series [5] (H1299, compound 5 µM alone), 14.79±0.78%. For the same compound, the inhibition at 1 µM in series [6] (Homo sapiens, HSC-T6, 1 µM, FIG. 5b, read-out: proliferation of hepatic stellate cells inhibited) was determined as 12%. In addition, the inhibition at 10 µM in series [6] (Homo sapiens, HSC-T6, 10 µM, FIG. 5b, read-out: proliferation of hepatic stellate cells inhibited) was found to be 25%. Also, the inhibition at 20 µM in series [6] (Homo sapiens, HSC-T6, 20 µM, FIG. 5b, read-out: proliferation of hepatic stellate cells inhibited) was 30%.
